Experimental data published in publication PMC7035970 (Cell chemical biology, 2019).
In brackets after ≈: the same amount, converted by molar mass.

How the values were obtained:
[1] = test system: spontaneous M. tuberculosis JSF-2019 resistant mutant strains; assay type: cell-based, Mycobacterium tuberculosis
[2] = test system: M. tuberculosis strain DRM12 (katG S315T); assay type: cell-based, Mycobacterium tuberculosis
[3] = test system: M. tuberculosis strain mc^24914 (inhA promoter c(−15)t); test: microbe, parasite or virus in culture; assay type: cell-based, Mycobacterium tuberculosis; settings: for MIC: Mycobacterium tuberculosis
[4] = test system: M. tuberculosis strain fgd1∷tn; test: MIC versus F420H2 deficient strain fgd1∷tn; assay type: cell-based, Mycobacterium tuberculosis; settings: Mycobacterium tuberculosis
[5] = test system: M. tuberculosis strain ddn∷tn; test: microbe, parasite or virus in culture; assay type: cell-based, Mycobacterium tuberculosis; settings: for MIC: Mycobacterium tuberculosis
[6] = test system: M. tuberculosis strain JSF-Mtb-1 (fbiC F567S, inhA promoter c(−15)t); assay type: cell-based, Mycobacterium tuberculosis
[7] = test system: M. tuberculosis clinical strains TDR31, TDR36, and TDR116; assay type: cell-based, Mycobacterium tuberculosis
M. tuberculosis H37Rv = settings: introduction, no reference given; cited from earlier work

In the case of `NNC(=O)c1ccncc1` [INH, reference compound], the MIC [1] is reported as 0.16 µM (≈ 0.0219 µg/mL), the “MIC shift versus the parental strain H37Rv” value [1] is reported as 8 x and the MIC [2] is reported as greater than 10 µM. For the same compound, the “MIC shift / loss of efficacy, DRM12 (KatG S315T) versus H37Rv” value (shortened to “MIC shift / loss of efficacy, DRM12”) [2] was greater than 62 fold, the “MIC shift, mc^24914 (inhA overexpression) versus H37Rv” value [3] was 8 x and the MIC [3] was 1.25 µM (≈ 0.171 µg/mL). For the same compound, the MIC [4] was 0.16 µM (≈ 0.0219 µg/mL), the MIC [5] was 0.16 µM (≈ 0.0219 µg/mL) and the MIC [6] was 1.25 µM (≈ 0.171 µg/mL).

For `O=[N+]([O-])c1ccc(/C=N/Nc2nc(Nc3ccccc3)nc(Nc3ccccc3)n2)o1` [JSF-2019, (E)-6-(2-((5-nitrofuran-2-yl)methylene)hydrazinyl)-N2,N4-diphenyl-1,3,5-triazine-2,4-diamine], the “activity versus clinical isolates with the KatG S315T mutation” value [7] was “maintained its wild type strain activity”, the MIC [2] was 0.078 µM (≈ 0.0325 µg/mL) and the “MIC shift / loss of efficacy, DRM12” value [2] was “lack of an MIC shift”. The “MIC shift, mc^24914 (inhA overexpression) versus H37Rv” value [3] was 8 x, the MIC [3] was 0.63 µM (≈ 0.262 µg/mL) and the MIC [4] was 1.3 µM (≈ 0.541 µg/mL). The “loss of susceptibility, ddn∷tn versus wild type H37Rv” value (“loss … ddn∷tn versus wild type H37Rv” for short) [5] was 8 x, the MIC [5] was 0.63 µM (≈ 0.262 µg/mL) and the MIC [6] was 5.0 µM (≈ 2.08 µg/mL). The “MIC change, JSF-Mtb-1 versus H37Rv” value [6] was 64 x.

In the case of `O=[N+]([O-])c1ccc(/C=N/Nc2nc(Nc3ccccc3)nc(N3CCOCC3)n2)o1` [JSF-2513, (E)-4-morpholino-6-(2-((5-nitrofuran-2-yl)methylene)hydrazineyl)-N-phenyl-1,3,5-triazin-2-amine], the MIC [2] is reported as 0.63 µM (≈ 0.259 µg/mL), the “MIC shift / loss of efficacy, DRM12” value [2] is reported as “lack of an MIC shift” and the “MIC shift, mc^24914 (inhA overexpression) versus H37Rv” value [3] is reported as “four-fold”. The MIC [3] was 2.5 µM (≈ 1.03 µg/mL), the MIC [4] was 10 µM (≈ 4.1 µg/mL) and the “loss … ddn∷tn versus wild type H37Rv” value [5] was 2 x. The MIC [5] was 1.3 µM (≈ 0.534 µg/mL) and the MIC [6] was 20 µM (≈ 8.21 µg/mL).

In the case of `O=[N+]([O-])c1cn2c(n1)OC[C@@H](OCc1ccc(OC(F)(F)F)cc1)C2` [Pretomanid, reference compound], the MIC [2] is listed as 0.039 µM (≈ 0.014 µg/mL), the “loss of potency from any one resistance mutation” value (M. tuberculosis H37Rv) is listed as no less than 500 fold and the MIC [3] is listed as 0.16 µM (≈ 0.0575 µg/mL). For the same compound, the MIC [4] was greater than 40 µM, the “loss … ddn∷tn versus wild type H37Rv” value [5] was greater than 1000 x and the MIC [6] was greater than 40 µM.

For `C[C@]1(COc2ccc(N3CCC(Oc4ccc(OC(F)(F)F)cc4)CC3)cc2)Cn2cc([N+](=O)[O-])nc2O1` [delamanid], the “loss of potency from any one resistance mutation” value (M. tuberculosis H37Rv) is given as no less than 500 fold.
